Test results published in ChEMBL document CHEMBL1147029, “Probing binding requirements of NAD kinase with modified substrate (NAD) analogues” (Bioorg Med Chem Lett, 2007).

The molecules below were run against T1, NAD kinase (Mycobacterium tuberculosis) (UniProt P9WHV7) (assay: Inhibition of Mycobacterium tuberculosis NAD kinase at 2 mM).
T1 sequence (whole entry): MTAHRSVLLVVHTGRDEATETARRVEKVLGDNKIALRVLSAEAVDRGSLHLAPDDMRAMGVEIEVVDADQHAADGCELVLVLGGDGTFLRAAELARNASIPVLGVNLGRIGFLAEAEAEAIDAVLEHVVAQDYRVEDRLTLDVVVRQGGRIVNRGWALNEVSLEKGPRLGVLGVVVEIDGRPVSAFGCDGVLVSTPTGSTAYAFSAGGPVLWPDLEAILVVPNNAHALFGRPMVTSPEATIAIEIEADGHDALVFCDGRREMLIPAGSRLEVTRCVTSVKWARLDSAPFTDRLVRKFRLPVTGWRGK
With `NC(=O)c1cccc([C@@H]2O[C@H](COP(=O)(O)OP(=O)(O)OC[C@H]3O[C@@H](n4cnc5c(N)ncnc54)[C@H](O)[C@@H]3O)[C@@H](O)[C@H]2O)c1` the inhibition was 37%.

These molecules were tested against T1, NAD kinase (Mycobacterium tuberculosis) (assay: Inhibition of Mycobacterium tuberculosis NAD kinase at 1 mM).
`NC(=O)c1ccc[n+]([C@@H]2O[C@H](COP(=O)(O)OP(=O)(O)OC[C@H]3O[C@@H](n4cnc5c(N)ncnc54)[C@@H](O)[C@@H]3O)[C@@H](O)[C@H]2O)c1` gave an inhibition of 40%. `NC(=O)c1cccc([C@@H]2O[C@H](COP(=O)(O)OP(=O)(O)OC[C@H]3O[C@@H](n4cnc5c(N)ncnc54)[C@H](O)[C@@H]3O)[C@@H](O)[C@H]2O)c1` was tested, and the inhibition was < 10%. With `NC(=O)c1ccc[n+]([C@@H]2O[C@H](COP(=O)(O)OP(=O)(O)OC[C@H]3O[C@@H](n4cnc5c(N)ncnc54)[C@H](F)[C@@H]3O)[C@@H](O)[C@H]2O)c1` the inhibition was < 10%. Work on `O=C(CBr)c1ccccn1` yielded an inhibition of 63%. `NC(=O)c1ccc[n+]([C@@H]2O[C@H](COP(=O)(O)OP(=O)(O)OC[C@H]3O[C@@H](n4cnc5c(N)ncnc54)[C@@H](F)[C@@H]3O)[C@@H](O)[C@H]2O)c1` was tested, and the inhibition was < 10%. Work on `O=C(CBr)c1cccnc1` yielded an inhibition of 30%. `O=C(CBr)c1ccncc1` showed an inhibition of 40%.
